Experiment [1] concerns the target T1, human notum pectinacetyltransferase (Homo sapiens, UniProt Q6P988).
T1 construct: made in house; unpurified conditioned medium used
T1 sequence (Q6P988 20-496): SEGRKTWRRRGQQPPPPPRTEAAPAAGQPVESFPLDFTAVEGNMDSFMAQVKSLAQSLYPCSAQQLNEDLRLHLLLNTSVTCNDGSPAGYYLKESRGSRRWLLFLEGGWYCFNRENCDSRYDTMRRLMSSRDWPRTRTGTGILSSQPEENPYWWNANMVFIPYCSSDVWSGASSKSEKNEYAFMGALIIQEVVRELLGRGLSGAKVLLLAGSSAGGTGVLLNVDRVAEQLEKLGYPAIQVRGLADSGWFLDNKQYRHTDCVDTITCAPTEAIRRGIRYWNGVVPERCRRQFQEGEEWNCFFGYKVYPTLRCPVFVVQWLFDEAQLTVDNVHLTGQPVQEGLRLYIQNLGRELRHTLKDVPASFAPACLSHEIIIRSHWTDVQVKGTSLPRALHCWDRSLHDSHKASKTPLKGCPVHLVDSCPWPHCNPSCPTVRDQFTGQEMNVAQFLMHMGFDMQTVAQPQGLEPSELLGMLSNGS
The experiment is described as follows: Binding assay (OPTS esterase substrate, fluorimetric). The experiment is classed as biochemical. As to the method: Plasmid containing human notum pectinacetyltransferase in pcDNA3.1(+) vector was transfected into HEK (293 cells and clones were selecting by growing in presence of 400 ug/mL of G418. Condition media from these cells was used for the assay.

In experiment [2] the target is T1, human notum pectinacetyltransferase. The experiment is described as follows: Reporter assay (CellSensor LEF/TCF-bla FreeStyle 293F cells, Wnt3a and notum conditioned media). The experiment is classed as cell-based. The following applies: class symbols.

Each structure is given as a SMILES string.

The IC50 is the concentration at which inhibition is half-maximal. The low end stands for greater potency, the high end for weaker potency. What is called EC50 is the concentration that produces a half-maximal response. Higher therefore signals weaker potency. In experiment [1] (class symbols), `NC(=O)c1cc2c(s1)-c1c(F)ccc(F)c1SC2` [6,9-difluoro-4H-thieno[3,2-c]thiochromene-2-carboxamide] came in with an IC50 of less than 50 nM. Moreover, the EC50 in experiment [2] was less than 50 nM.
With `O=C(O)c1cc2c(s1)-c1cccc(F)c1OC2` [6-fluoro-4H-thieno[3,2-c]chromene-2-carboxylic acid], the half-maximal inhibitory concentration (IC50) in experiment [1] (class symbols) was less than 1000 nM. The compound further returned an EC50 in experiment [2] of less than 50 nM.
For `NC(=O)c1cc2c(s1)-c1c(F)cc(F)cc1OC2` [7,9-difluoro-4H-thieno[3,2-c]chromene-2-carboxamide] the same measures were less than 50 nM and less than 50 nM.
For `COc1ccc2c(c1)CCc1cc(C(=O)O)sc1-2` [7-methoxy-4,5-dihydronaphtho[1,2-b]thiophene-2-carboxylic acid] the same measures were less than 2000 nM and less than 50 nM.
For the compound `NCCNC(=O)c1cc2c(s1)-c1ccccc1CC2` [N-(2-aminoethyl)-4,5-dihydronaphtho[1,2-b]thiophene-2-carboxamide], the IC50 in experiment [1] (class symbols) is less than 2000 nM. For the same compound, the concentration giving a half-maximal response (EC50) in experiment [2] is less than 500 nM.
In experiment [1] (class symbols), `O=C(NCCO)c1cc2c(s1)-c1ccccc1CC2` [N-(2-hydroxyethyl)-4,5-dihydronaphtho[1,2-b]thiophene-2-carboxamide] showed an IC50 of less than 1000 nM. The compound also had an EC50 in experiment [2] of less than 50 nM.
The compound `CCOC(=O)c1cc2c(s1)-c1ccc(C)c(C#N)c1CC2` [ethyl 6-cyano-7-methyl-4,5-dihydronaphtho[1,2-b]thiophene-2-carboxylate] returned an IC50 in experiment [1] (class symbols) of less than 50 nM. In experiment [2], this compound gave an EC50 of less than 50 nM.
In experiment [1] (given as numeric bound above the legend's highest class), `CCOC(=O)c1cc2c(s1)-c1ccc(OC)cc1CC2` [ethyl 7-methoxy-4,5-dihydronaphtho[1,2-b]thiophene-2-carboxylate] had an IC50 of more than 2000 nM. Moreover, the concentration giving a half-maximal response (EC50) in experiment [2] is less than 500 nM.

(Values after patent publication US9624238B2, “4H-thieno[3,2-C]chromene-based inhibitors of Notum Pectinacetylesterase and methods of their use” (Lexicon Pharmaceuticals, Inc., priority 2011, dated 2017).)
